# Measurements: patent publication US8729047B2, “Compositions for inhibiting redox-sensitive GTPases” (Board of Regents, The University of Texas System, priority 2010, dated 2014)
# Where two headings read alike, the source gives them in different places.
# Key:
# Rac1 = Rac1 (Homo sapiens, UniProt P63000); assay: Rac1 expression (Western) and Rac1 G-LISA activity in activated T cells; format: cell-based
# Method: FIG. 26. Determination of Rac1 activity and ERM phosphorylation. […] (A) The soluble cell extract was then used to perform Western blot analyses for Rac1 and the ERM. This cell extract also was used for the co-IP-based ESI-MS analysis (FIG. 8). (B) A Rac1 activity assay was colorimetrically determined using cell extract; the assay was performed with the Rac1 G-LISA Activation Assay Kit (Cat. No. BK125) (Denver, Colo.). To examine the level of phosphorylation of the ERM, cells were cultured in complete RPMI 1640 medium with ˜50 μCi of ^32P/mL before initiating stimulation of T cells. The collected cell extract was nutated with resin coupled with a human ERM (231C2a) antibody (Santa Cruz Biotechnology, CA) at 4° C. for 5 h. […] The immunoprecipitates were then analyzed by SDS-PAGE and autoradiographed. […] The data represented in the figure represent the mean values of triplicate measurements, and the vertical error bar indicates standard errors.
# RhoC [1] = molecular target: T1, RhoC (Homo sapiens, UniProt P08134); assay: RhoC expression (Western) and RhoC activity assay in cells; format: cell-based; parameters: endogenous in cells; host or cells: SUM149, SUM102, SW480, HCCLM3 (endogenous); HME-RhoC (transfected with wild type RhoC)
# Method: FIG. 14. Determination of cell invasiveness in the presence and absence of thiopurines and/or redox agents. […] Western blot analysis representing the total expression of RhoC in these cells also is shown. (B) Experimental procedures for the determination of the time-dependent motility of cells using the QCM Cell Invasion Assay kit in the presence and absence of 6-TG and DETA/NO are described elsewhere herein.
# Cells were lysed in an extraction buffer containing 50 mM NaCl, 5 mM MgCl2, 1 mM ethylenediaminetetraacetic acid (EDTA), 0.1 mM diethylenetriaminepentaacetic acid (DTPA), and 0.1% NP40 in 150 mM TrisHCl (pH 8.0). The content of […] RhoC in cells then was determined by using Western analysis that relies on a monoclonal anti-RhoC antibody (Biocompare, South San Francisco, Calif.). To determine RhoC activity, the colorimetric RhoA activation assay Biochem Kit (Cytoskeleton, Denver, Colo.) was used essentially as described in the previous study (Hall et al. Neoplasia 10, 797-803 (2008)) except that the RhoC specific antibody (vide supra), instead of the RhoA antibody included in the assay kit, was used for this analysis.
# RhoC [2] = molecular target: T1, RhoC; assay: Competitive binding assay, [3H]GDP-loaded Rho protein titrated with 6-TGDP (FIG. 16A); parameters: made in house; host or cells: E. coli
# Method: (§1) FIG. 16. Kinetic properties of RhoC with 6-TGDP in the presence or absence of a redox agent. All kinetic analyses are described elsewhere herein. (A) ^appKD values of Rac1, RhoA, RhoC, and RhoC C20S for 6-TGDP were estimated to be 7.9, 11.6, 11.8, and 11.2 μM, respectively. ^trueKD values of Rac1, RhoA, […] for 6-TGDP were then calculated to be 5.1, 10.8, 11.1, and 10.5 μM, respectively, by using a compensation equation, ^trueKD for 6-TGDP=^appKD for 6-TGDP/(1+[[^3H]GDP]/^trueKD for GDP) (Heo, J., and Hong, I. (2010) Biochemistry 49, 3965-3976), in conjunction with the values given. […] The GDP dissociation rates from RhoC C20S by NO, .NO2, and N2O3 were estimated to be 0.02×10^−3, 0.05×10^−3, and 0.04×10^−3 s^−1, respectively. […] (D) ^appKD values of RhoC for [^3H]GDP in the presence or absence of DTT were estimated to be 22.4 μM and […], respectively. ^appKD values of C20S RhoC for [^3H]GDP in the presence or absence of DTT were determined to be 24.8 μM and 25.2 μM, respectively. The regression values associated with these fits were >0.8595. All data points associated with vertical standard error bars shown in this figure are the mean values of triplicate measurements.
# (§2) Transition metal-free assay buffer and vials as described in a previous study (Heo et al. Biochemistry 49, 3965-3976 (2010)) were used for all kinetic assays. The kinetic assay buffer contains the highest grade of 50 mM NaCl, 10 mM MgCl2, 1 mM EDTA, and 0.1 mM DTPA in 50 mM TrisHCl (pH 7.4). Before performance of any of the assays, all protein samples also were dialyzed with a metal-free buffer under anaerobic conditions. As with RhoA and Rac1 (Heo et al. J. Biol. Chem. 280, 31003-31010 (2005)), C20S RhoC were expressed in E. coli and purified using anionic and size exclusion columns.
# (§3) (a) A competitive binding assay was performed to determine the binding affinity of Rho GTPase and 6-TGDP. The radiolabeled [^3H]GDP-loaded Rho protein (1 μM) was titrated with various concentrations of 6-TGDP. The titrated Rho protein sample then was spotted onto a nitrocellulose membrane. Each membrane was washed three times with the assay buffer, and radioactivity was determined using a Beckman-Coulter scintillation counter. The radioactivity of the sample (Rho protein-bound [^3H]GDP) was converted into, and thus plotted, as the fraction of mol GDP per mol total Rho protein. The apparent dissociation constant (^appKD) of the Rho protein with [^3H]GDP in the presence of 6-TGDP was determined by using Prism software to fit the titration curve to a hyperbola.
# RhoC C20S = RhoC C20S (Homo sapiens, UniProt P08134, C20S); assay: as above; parameters: made in house; host or cells: E. coli
# Method: as §1, §2, §3
# Ras = Ras (Homo sapiens, UniProt P01112); conditions: determined previously (Lenzen et al.; Heo et al.); read-out: trueKD GDP; cited from earlier work
# RhoA = molecular target: T2, RhoA (Homo sapiens, UniProt P61586); conditions: determined previously; read-out: trueKD GDP; cited from earlier work
# T2 construct: made in house; host or cells: E. coli
# [3] = [3H]GDP-loaded Rho protein 1 μM titrated with 6-TGDP, FIG. 16A, read-out: appKD for 6-TGDP
# [4] = determined within this study, read-out: trueKD for GDP
# T1 sequence (P08134 whole entry): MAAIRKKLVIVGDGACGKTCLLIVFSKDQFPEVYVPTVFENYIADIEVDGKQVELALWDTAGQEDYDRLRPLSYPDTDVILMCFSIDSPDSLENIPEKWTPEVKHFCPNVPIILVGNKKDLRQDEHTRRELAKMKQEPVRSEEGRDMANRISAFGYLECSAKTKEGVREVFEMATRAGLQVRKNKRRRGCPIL
# Sequence of RhoC C20S (P08134 whole entry C20S): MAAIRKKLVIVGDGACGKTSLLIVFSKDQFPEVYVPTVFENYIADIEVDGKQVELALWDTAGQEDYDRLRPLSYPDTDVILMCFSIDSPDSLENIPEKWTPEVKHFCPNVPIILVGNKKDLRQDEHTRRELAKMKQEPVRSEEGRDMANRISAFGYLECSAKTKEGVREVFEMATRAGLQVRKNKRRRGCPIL
# T2 sequence (P61586 whole entry, species assumed): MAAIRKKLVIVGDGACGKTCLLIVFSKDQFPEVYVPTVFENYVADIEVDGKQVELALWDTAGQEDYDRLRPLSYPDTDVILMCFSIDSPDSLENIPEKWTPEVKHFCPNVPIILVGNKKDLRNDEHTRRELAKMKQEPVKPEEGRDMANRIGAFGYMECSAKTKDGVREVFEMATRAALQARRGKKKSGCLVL
# Sequence of Ras (P01112 whole entry): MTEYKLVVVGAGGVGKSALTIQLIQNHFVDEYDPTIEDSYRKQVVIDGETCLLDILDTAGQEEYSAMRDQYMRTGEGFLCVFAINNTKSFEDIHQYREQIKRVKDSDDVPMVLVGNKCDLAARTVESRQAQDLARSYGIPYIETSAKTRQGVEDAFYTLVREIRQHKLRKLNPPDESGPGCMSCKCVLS
compound,measurement,setting,value
"Nc1nc2nc[nH]c2c(=S)[nH]1 [6-TG, 6-thioguanine]",Rac1 inactivation,"Rac1; 6-TG 1 μM, within 3 days, FIG. 26B",significant portion of Rac1 was inactivated
same,fraction of inactive Rac1,Rac1; 6-TG plus DETA/NO 10 μM,synergistically increases the fraction of inactive Rac1
same,cellular expression level of Rac1 and ERM,"Rac1; presence or absence of 6-TG, FIG. 26A",not changed
same,level of total RhoC expression,"RhoC [1]; SUM149 and HME-RhoC cells, 6-TG three or more days",not changed
same,RhoC activity,"RhoC [1]; SUM149 and HME-RhoC cells, both 6-TG and DETA/NO (or GSNO), three days",essentially no RhoC activity was detected
same,activity of RhoC,"RhoC [1]; SW480 and HCCLM3 cells, 6-TG and a NO donor, not shown",drastically diminished
"Nc1nc2c(ncn2[C@@H]2O[C@H](COP(=O)(O)OP(=O)(O)O)[C@@H](O)[C@H]2O)c(=S)[nH]1 [6-TGDP, 6-thioguanosine diphosphate]",Kd,RhoC [2]; [3],11.8 µM
same,Kd,"RhoC [2]; calculated by compensation equation, FIG. 16A, read-out: trueKD for 6-TGDP",11.1 µM
same,Kd,RhoC C20S; [3],11.2 µM
same,Kd,"RhoC C20S; calculated by compensation equation, FIG. 16A, fourth value of the list, read-out: trueKD for 6-TGDP",10.5 µM
"Nc1nc2[nH]c(S)nc2c(=O)[nH]1 [8-TG, 2-amino-8-mercapto-1H-purin-6(9H)-one]",screen of 6-TP isomers on Rac1 activity,Rac1; not shown,most effectively inhibits Rac1 activity
Nc1nc2c(ncn2[C@@H]2O[C@H](COP(=O)(O)OP(=O)(O)O)[C@@H](O)[C@H]2O)c(=O)[nH]1 [GDP],Kd,Ras,9 pM
same,Kd,RhoA,13 µM
same,Kd,RhoC [2]; [4],15 ± 8 µM
same,Kd,RhoC C20S; [4],14.2 ± 8 µM
